Our source for the IC50 values is patent US7816353B2 (Exelixis, Inc., priority 2003, dated 2010).

This test deals with T1, p70S6K (Homo sapiens, UniProt P23443, T412E).
T1 construct: human p70S6 kinase domain residues 1-421, containing a T412E mutation; made in house
In words: p70S6 Kinase Assay (Luciferase-Coupled Chemiluminescent Kinase assay, LCCA). In kind it is biochemical. As to conditions: human p70S6 kinase domain residues 1-421, T412E; 5 μM ATP; read-out: p70S6K IC50. As for the experimental part:
Kinase activity and compound inhibition are investigated using one or more of the three assay formats described below. The ATP concentrations for each assay are selected to be close to the Michaelis-Menten constant (KM) for each individual kinase. Dose-response experiments are performed at 10 different inhibitor concentrations in a 384-well plate format. […] Y=Min+(Max−Min)/(1+(X/IC50)^H) Equation (2) p70S6 Kinase Assay
Biochemical activity of p70S6 kinase was assessed using a Luciferase-Coupled Chemiluminescent Kinase assay (LCCA) format. Kinase activity was measured as the percent ATP remaining following the kinase reaction. Remaining ATP was detected by luciferase-luciferin-coupled chemiluminescence. […] The mixture is incubated at ambient temperature for 2 hours after which 20 μL luciferase-luciferin mix is added and the chemiluminescent signal read using a Wallac Victor^2 reader.

Each structure is given as a SMILES string.

T1 sequence (P23443 1-421 T412E): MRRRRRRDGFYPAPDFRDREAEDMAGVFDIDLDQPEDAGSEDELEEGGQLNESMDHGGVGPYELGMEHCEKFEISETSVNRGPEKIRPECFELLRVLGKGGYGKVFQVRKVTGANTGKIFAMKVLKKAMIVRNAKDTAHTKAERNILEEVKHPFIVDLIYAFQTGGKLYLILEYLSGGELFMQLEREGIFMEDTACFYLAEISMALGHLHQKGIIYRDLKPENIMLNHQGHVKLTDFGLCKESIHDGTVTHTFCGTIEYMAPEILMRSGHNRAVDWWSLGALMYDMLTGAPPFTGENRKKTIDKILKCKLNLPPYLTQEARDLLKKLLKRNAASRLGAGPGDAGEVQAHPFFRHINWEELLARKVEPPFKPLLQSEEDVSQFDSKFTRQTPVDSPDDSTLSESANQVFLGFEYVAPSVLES

The IC50 is the concentration that inhibits the measured activity by half. For the molecule `COc1nc(N)nc(N[C@@H](C)C(=O)Nc2cc(OCCN(C)C)cc(C(F)(F)F)c2)c1C#N` [Example 179, N~2~-[2-amino-5-cyano-6-(methyloxy)pyrimidin-4-yl]-N-[3-{[2-(dimethylamino)ethyl]oxy}-5-(trifluoromethyl)phenyl]-L-alaninamide], the IC50 is more than 2000 nM.
On to `CCOc1nc(N)nc(N[C@@H](CCC[N+](C)(C)C)C(=O)Nc2cccc(C(F)(F)F)c2)c1C#N` [Example 169, N-((4S)-4-{[2-amino-5-cyano-6-(ethyloxy)pyrimidin-4-yl]amino}-5-oxo-5-{[3-(trifluoromethyl)phenyl]amino}pentyl)-N,N-dimethylmethanaminium], for which the IC50 was more than 2000 nM.
For `COCCN(CCC[C@H](Nc1nc(N)nc(SC)c1C#N)C(=O)Nc1cccc(C(F)(F)F)c1)CCOC` [Example 184, N~2~-[2-amino-5-cyano-6-(methylthio)pyrimidin-4-yl]-N~5~,N~5~-bis[2-(methyloxy)ethyl]-N-[3-(trifluoromethyl)phenyl]-L-ornithinamide] the value was more than 2000 nM.
For `CSc1nc(N)nc(NC(C)(C)C(=O)Nc2cccc(C(F)(F)F)c2)c1C#N` [Example 81, N^2-[2-amino-5-cyano-6-(methylthio)pyrimidin-4-yl]-2-methyl-N-[3-(trifluoromethyl)phenyl]alaninamide], the IC50 is more than 2000 nM.
On to `CSc1nc(N)nc(N[C@@H](C)C(=O)Nc2cc(C(F)(F)F)ccc2Cl)c1C#N` [Example 80, N^2-[2-amino-5-cyano-6-(methylthio)pyrimidin-4-yl]-N-[2-5-(trifluoromethyl)phenyl]-L-alaninamide], for which the IC50 was more than 2000 nM.
Turning to `CSc1nc(N)nc(SCC(=O)Nc2cc(C(F)(F)F)cc(C(F)(F)F)c2)c1C#N` [Example 77, 2-{[2-amino-5-cyano-6-(methylthio)pyrimidin-4-yl]thio}-N-[3,5-bis(trifluoromethyl)phenyl]acetamide], the IC50 is more than 2000 nM.
On to `CSc1nc(N)nc(N2CCC[C@@H]2C(=O)Nc2cccc(C(F)(F)F)c2)c1C#N` [Example 85, (R)-1-[2-amino-5-cyano-6-(methylthio)pyrimidin-4-yl]-N-[3-(trifluoromethyl)phenyl]prolinamide], for which the IC50 is more than 2000 nM.
The result for `CCOc1nc(N)nc(N[C@@H](CCC(=O)OCc2ccccc2)C(=O)Nc2cccc(C(F)(F)F)c2)c1C#N` [Example 165, phenylmethyl N~2~-[2-amino-5-cyano-6-(ethyloxy)pyrimidin-4-yl]-N-[3-(trifluoromethyl)phenyl]-L-apha-glutaminate] reads more than 2000 nM.
The result for `N#Cc1c(SCC(=O)Nc2cccc(C(F)(F)F)c2)nc(N)nc1N1CCOCC1` [Example 84, 2-[(2-amino-5-cyano-6-morpholin-4-ylpyrimidin-4-yl)thio]-N-[3-(trifluoromethyl)phenyl]acetamide] reads more than 2000 nM; that for `CSc1nc(N)nc(N[C@@H](CCCNC(=N)N)C(=O)Nc2cccc(C(F)(F)F)c2)c1C#N` [Example 117, N^2-[2-amino-5-cyano-6-(methylthio)pyrimidin-4-yl]-N-[3-(trifluoromethyl)phenyl]-L-argininamide], more than 2000 nM; that for `CSc1nc(N)nc(N[C@@H](C)C(=O)Nc2cccc(N)c2)c1C#N` [Example 124, N^2-[2-amino-5-cyano-6-(methylthio)pyrimidin-4-yl]-N-(3-aminophenyl)-L-alaninamide], more than 2000 nM.
As to `CSc1nc(N)nc(N[C@@H](CN2CCOCC2)C(=O)Nc2cccc(C(F)(F)F)c2)c1C#N` [Example 191, N~2~-[2-amino-5-cyano-6-(methylthio)pyrimidin-4-yl]-3-morpholin-4-yl-N-[3-(trifluoromethyl)phenyl]-L-alaninamide], the IC50 is more than 2000 nM.
For `C[C@H](Nc1nc(N)nc([S+](C)[O-])c1C#N)C(=O)Nc1cccc(C(F)(F)F)c1` (stereo partly drawn) [Example 74, N^2-[2-amino-5-cyano-6-(methylsulfinyl)pyrimidin-4-yl]-N-[3-(trifluoromethyl)phenyl]-L-alaninamide] the value was more than 2000 nM; for `CCOc1nc(N)nc(N[C@@H](C)C(=O)Nc2cc(C(=O)NCCN3CCOCC3)cc(C(F)(F)F)c2)c1C#N` [Example 159, 3-({N-[2-amino-5-cyano-6-(ethyloxy)pyrimidin-4-yl]-L-alanyl}amino)-N-(2-morpholin-4-ylethyl)-5-(trifluoromethyl)benzamide], more than 2000 nM; for `CSc1nc(N)nc(OCC(=O)Nc2cccc(C(F)(F)F)c2)c1C=O` [Example 46, 2-{[2-amino-5-formyl-6-(methylthio)pyrimidin-4-yl]oxy}-N-[3-(trifluoromethyl)phenyl]acetamide], 50 to 500 nM.
The result for `Cc1nc2oc(C(=O)Nc3cccc(C(F)(F)F)c3)c(N)c2c(C)c1[N+](=O)[O-]` [Example 98, 3-amino-4,6-dimethyl-5-nitro-N-[3-(trifluoromethyl)phenyl]furo[2,3-b]pyridine-2-carboxamide] reads more than 2000 nM.
As for `CCOc1nc(N)nc(N[C@@H](CCC(N)=O)C(=O)Nc2cccc(C(F)(F)F)c2)c1C#N` [Example 175, N~2~-[2-amino-5-cyano-6-(ethyloxy)pyrimidin-4-yl]-N~1~-[3-(trifluoromethyl)phenyl]-L-glutamamide], the IC50 was more than 2000 nM.
The result for `CSc1nc(N)nc(NCC(=O)Nc2cccc(C(F)(F)F)c2)c1/C=N/N` [Example 58, N^2-[2-amino-5-[(E)-hydrazonomethyl]-6-(methylthio)pyrimidin-4-yl]-N-[3-(trifluoromethyl)phenyl]glycinamide] reads 500 to 2000 nM.
For `CSc1nc(N)nc(N[C@@H](C)c2nc3ccc(C(F)(F)F)cc3[nH]2)c1C#N` [Example 107, 2-amino-4-(methylthio)-6-({(1S)-1-[6-(trifluoromethyl)-1H-benzimidazol-2-yl]ethyl}amino)pyrimidine-5-carbonitrile] the value was more than 2000 nM.
Regarding `CSc1nc(N)nc(N(C)CC(=O)Nc2cccc(C(C)C)c2)c1C#N` [Example 110, N^2-[2-amino-5-cyano-6-(methylthio)pyrimidin-4-yl]-N^2-methyl-N-[3-(1-methylethyl)phenyl]glycinamide], the IC50 is more than 2000 nM.
Regarding `Nc1nc(NCC(=O)Nc2cccc(C(F)(F)F)c2)c2cn[nH]c2n1` [Example 57, N^2-(6-amino-1H-pyrazolo[3,4-d]pyrimidin-4-yl)-N-[3-(trifluoromethyl)phenyl]glycinamide], the IC50 lay in the range of 500 to 2000 nM.
For the molecule `CCN(CC)CCOc1cccc(NC(=O)[C@H](C)Nc2nc(N)nc(SC)c2C#N)c1` [Example 92, N^2-[2-amino-5-cyano-6-(methylthio)pyrimidin-4-yl]-N-(3-{[2-(diethylamino)ethyl]oxy}phenyl)-L-alaninamide], the IC50 was more than 2000 nM.
For `CCN(CC)CCNc1cc(NC(=O)[C@H](C)Nc2nc(N)nc(SC)c2C#N)cc(C(F)(F)F)c1` [Example 106, N^2-[2-amino-5-cyano-6-(methylthio)pyrimidin-4-yl]-N-[3-{[2-(diethylamino)ethyl]amino}-5-(trifluoromethyl)phenyl]-L-alaninamide] the value was more than 2000 nM; for `C[C@H](Nc1nc(N)nc(OCCN(C)C)c1C#N)C(=O)Nc1cccc(C(F)(F)F)c1` [Example 102, N^2-(2-amino-5-cyano-6-{[2-(dimethylamino)ethyl]oxy}pyrimidin-4-yl)-N-[3-(trifluoromethyl)phenyl]-L-alaninamide], more than 2000 nM.
